Assay [1] relates to VSMCs. Description: Transwell insert migration assay. The format is cell-based, human. As to conditions: 12-h incubation, 10^−7 M; control 48.4%. As for the experimental part:
VSMCs (75,000 cells/200 μL) were suspended in M231 containing 1% charcoal striped FBS and either 0.1% ethanol (vehicle control) or the corresponding steroids and seeded onto insert wells (transwell filter with 12-μm pores; EMD Millipore). The inserts were then placed in 24-well plates containing 500 μL M231 with 1% charcoal striped FBS. After 12 h, cells remaining on the upper surface of the filter were removed with a cotton swab. Migrated cells were trypsinized, centrifuged, and resuspended in 200 μL of M231 medium. The cell suspensions were mixed with 200 μL 10% ethanol containing 0.4% Trypan blue dye and the live cell number was counted by Countess Automated Cell Counter (Invitrogen). See further details in SI Materials and Methods.
Cultured VSMCs were grown in T-75 cell culture flasks in M231 (Life Technologies) with smooth muscle growth supplement (Life Technologies) with 100 U/mL penicillin, 100 μg/mL streptomycin, 0.25 μg/mL fungizone. Confluent VSMCs were washed twice with 1×PBS to remove residual serum, and then trypsinized, resuspended (75,000 cells per 200 μL per well) in M231 with 1% charcoal striped FBS with 0.1% ethanol (vehicle, control), 10^−7 M MPA (Sigma-Aldrich), 10^−7 M ETO (Organon), or 10^−7 M P4 (Sigma-Aldrich)±rCCL2 (R&D Systems) and seeded on insert wells (transwell filter with 12-μm pores; EMD Millipore), which were then placed in 24-well plates containing 500 μL M231 with 1% charcoal striped FBS. After 12 h, cells remaining on the upper surface of the filter were removed with a cotton swab. Migrated cells attached to the lower surface of each insert or to the surface of lower wells were collected by trypsinization, followed by centrifugation and resuspension in 200 μL of M231 medium. The cell suspensions were mixed with 200 μL 10% ethanol containing 0.4% Trypan blue dye (selectively stains only dead cells blue, whereas live cells with intact cell membranes remain unstained) for 5 min. A mixture of 100 μL M231 and 100 μL 10% ethanol containing 0.4% Trypan blue dye was used as a negative control. To detect live cell numbers, 10 μL of final cell/Trypan blue dye suspension from each treatment condition was pipetted into Countess Cell Counting Chamber Slide and counted by using Countess Automated Cell Counter (Invitrogen). The counting procedure was performed in duplicate.

Assay [2] has as its system VSMCs. The experiment in a line: VSMC apoptosis assay (ELISA, cleaved caspase-3 immunostaining, nuclear fragmentation). The assay is classed as cell-based, human. To be noted: 10^−7 M, 48 h, vs control. As for the experimental part: VSMCs were grown in 96-well plates or 8-well chamber slides and incubated with 10^−7 M of MPA (Sigma-Aldrich) or ETO (Organon) or P4 (Sigma-Aldrich) or vehicle±rCCL2 (R&D Systems)±STAT1 inhibitor, 5′-methyl-thioadenosine (MTA; EMD Millipore) (19) for 48 or 72 h. VSMCs were then analyzed for apoptosis by an ELISA based apoptosis kit (Roche) or cleaved-caspase 3 immunostaining. VSMC proliferation was measured by BrdU incorporation Kit (Cell Signaling). (See further details in SI Materials and Methods).
This assay detects late-stage apoptosis by quantifying specific mono- and oligonucleosomes in the cytoplasmic fraction of cell lysates using mouse monoclonal antibodies directed against DNA and histones. In late-stage apoptosis (following nuclear fragmentation), cell cytoplasm contains mono- and oligonucleosomes, absent in normal (nonapoptotic) cells. The nucleosomes contained in the sample bind via their histone component to the immobilized antihistone antibody. Anti-DNA peroxidase reacts with the DNA part in the nucleosome. After removal of unbound peroxidase conjugate, the amount of peroxidase retained in the immunocomplex is detected by measuring colorimetric reaction.
Apoptosis index was determined in a second set of experiments. VSMC cultures (10,000 cells per wells) were incubated in 96-well plates with the treatments described above, at room temperature. Briefly, at the end of 48- or 72-h incubation periods, cells were washed three times in ice-cold PBS and cell lysate prepared by incubating each well in 200-μL lysis buffer for 30 min, followed by centrifugation at 200×g for 10 min. Duplicate 20-μL supernatant of cytoplasmic fractions from each treatment were carefully pipetted into streptavidin-coated microplates. A 20-μL VSMC culture supernatant devoid of cell fractions was used as a negative control, and 1-, 5-, 10-, and 20-μL supernatants containing camptothecin-induced apoptotic cell fractions were used as positive controls (ELISA based cell death detection kit^plus, Roche Applied Science). Incubation buffer was used as background control (Roche Applied Science). Then, each well was brought to 100 μL by adding immunoreagent (peroxidase-conjugated anti-DNA complex) and incubated by gentle shaking (300 rpm) for 2 h. […] The immunoreaction was stopped with 100 μL ABTS Stop Solution and measured at 405 nm against 100 μL ABTS solution+100 μL ABTS stop solution as a blank (reference wavelength 490 nm) using Spectra Max190 microplate reader (Molecular Devices). […]
The first set of eight-well chamber slides was processed for cleaved caspase-3 immunocytochemistry. […] Cleaved caspase-3 immunoreactivity in groups was then evaluated as described for αSMA in the HSOCRE section. […]

Entries after “also recorded” stand apart in the source; their conditions may differ.

With `CC(=O)[C@H]1CC[C@H]2[C@@H]3CCC4=CC(=O)CC[C@]4(C)[C@H]3CC[C@]12C` [P4, progesterone], the migration rate in assay [1] was 39.4%. In addition, in assay [2], the apoptotic index entry was “unaffected”.
The corresponding values for `C#C[C@]1(O)CC[C@H]2[C@@H]3CCC4=CC(=O)CC[C@@H]4[C@H]3C(=C)C[C@@]21CC` [ETO, etonogestrel] are 29.6% and “unaffected; also recorded: did not affect”.
Take `CC(=O)O[C@]1(C(C)=O)CC[C@H]2[C@@H]3C[C@H](C)C4=CC(=O)CC[C@]4(C)[C@H]3CC[C@@]21C` [MPA, medroxyprogesterone acetate]: in assay [1], the migration rate is 18.7%. Further, the apoptotic index entry was “did not affect” in assay [2] and “unaffected” in assay [2] (listed as WA).

The record behind these values is patent US20180078615A1, “USE OF CCL2 TO INHIBIT ABNORMAL UTERINE BLEEDING” (UNIVERSITY OF SOUTH FLORIDA, priority 2015, published 2018).
